Test results as given in patent US20120309739A1, “AKT / PKB INHIBITORS” (ALMAC DISCOVERY LIMITED, priority 2009, published 2012).
Where a name gives a salt, the structure may show the parent alone.

Assays:
Format in all cases: biochemical
AKT2 = biological target: T1, AKT2 (Homo sapiens, UniProt P31751); assay: AKT Kinase Assay (IMAP fluorescent polarisation) vs AKT2; details: activated AKT2, FAM Crosstide substrate
T1 construct: purchased SignalChem
Procedure: (§1) Testing of the compounds was performed using an AKT Kinase Assay:
(§2) Activated AKT isoforms 1, 2 and 3 were assayed utilising a 5′ FAM Crosstide (Seq. GRPRTSSFAEG-OH). The extent of kinase phosphorylation was determined by fluorescent polarisation using IMAP progressive binding reagent, which introduces binding beads which allow the reagent to specifically bind to phosphate residues via covalent co-ordination complex bonds.
(§3) iMAP binding solution stops Crosstide/kinase interaction and specifically binds phosphorylated substrates. The degree of phosphorylation is determined by fluorescent polarisation (excitation 485 nm; emission 528 nm) or the reduction in speed of rotation of the excited substrate.
(§4) The following materials were used in the assay: • a) Activated AKT isoforms (SignalChem.) dissolved in Complete Reaction buffer at a pre-determined concentration selected so that the assay was carried out in the linear range. • b) AKT substrate peptide: FAM Crosstide (R7110) Molecular Devices, diluted in complete reaction buffer. • c) iMAP Progressive Screening Express Kit (R8127) Molecular Devices • d) Complete Reaction Buffer containing 0.1% BSA, 10 mM Tris-HCl, 10 mM MgCl2, 0.05% NaN3 and 0.01% phosphate free BSA, 1 mM DTT • e) Progressive Binding Solution containing 75% Buffer A, 25% Buffer B and low volume Binding Reagent which contains the binding entity for the assay • f) ATP diluted in complete reaction buffer • g) Black polystyrene 384 well assay plates (Nunc). • h) Biotek Synergy 4 Hybrid Plate reader.
(§5) 50 μl of test compound was dissolved in DMSO (Sigma Aldrich) and serially diluted in complete reaction buffer to give a fourteen point half log dose response and plated into 384 well black plates. The compound was incubated at room temperature with activated AKT isoform ([…]) at the pre-determined concentration, for 45 minutes.
(§6) […] of ATP solution mixed with 2.5 μl of AKT substrate peptide (FAM Crosstide (R7110) Molecular Devices) were dispensed into each well and the plate centrifuged at 1000 rpm for 20 seconds to ensure homogenous mixing of reagents. The reaction mix was incubated in the dark for one hour at room temperature.
(§7) The kinase reaction was stopped by the addition of Progressive Binding Solution and the mixture allowed to equilibrate for one hour in the dark, at room temperature.
(§8) The fluorescent polarisation generated in each well was determined using a […] Synergy 4 Hybrid plate reader. In brief, each reaction solution was excited at 485 nm with the emission measured at 528 nm in both the parallel and perpendicular pathway.
(§9) The polarisation value generated in each well was calculated by Gen5 software (Biotek) and the % inhibition of kinase activity compared to vehicle control was calculated via GraphPad Prism. IC50 values for each compound were calculated by non-linear regression analysis using Prism software.
(§10) All plates were internally controlled by two methods. Firstly, by calculating the signal:noise ratio; based on kinase polarisation without inhibitor and polarisation generated by complete reaction buffer in the absence of activated kinase. Secondly by determining IC50 values generated by known inhibitors of the AKT isoforms.

AKT1 = biological target: T2, AKT1 (Homo sapiens, UniProt P31749); assay: AKT Kinase Assay (IMAP fluorescent polarisation) vs AKT1; details: activated AKT1, FAM Crosstide substrate
T2 construct: purchased SignalChem
T2 sequence (P31749 whole entry): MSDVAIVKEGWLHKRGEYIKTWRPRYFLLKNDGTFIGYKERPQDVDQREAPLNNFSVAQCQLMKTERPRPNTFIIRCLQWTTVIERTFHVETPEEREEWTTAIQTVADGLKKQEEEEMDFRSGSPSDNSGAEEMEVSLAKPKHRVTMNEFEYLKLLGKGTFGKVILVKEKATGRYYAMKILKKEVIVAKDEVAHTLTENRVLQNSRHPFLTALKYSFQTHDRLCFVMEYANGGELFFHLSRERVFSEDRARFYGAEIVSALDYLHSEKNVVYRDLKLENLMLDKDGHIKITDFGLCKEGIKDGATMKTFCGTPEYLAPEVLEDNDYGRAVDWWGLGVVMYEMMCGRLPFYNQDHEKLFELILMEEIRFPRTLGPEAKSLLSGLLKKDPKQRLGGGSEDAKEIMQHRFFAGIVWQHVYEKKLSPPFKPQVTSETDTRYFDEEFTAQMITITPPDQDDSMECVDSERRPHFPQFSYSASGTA
Procedure: as §1, §2, §3, §4, §5, §6, §7, §8, §9, §10

AKT3 = biological target: T3, AKT3 (Homo sapiens, UniProt Q9Y243); assay: AKT Kinase Assay (IMAP fluorescent polarisation) vs AKT3; details: activated AKT3, FAM Crosstide substrate
T3 construct: purchased SignalChem
T3 sequence (Q9Y243 whole entry): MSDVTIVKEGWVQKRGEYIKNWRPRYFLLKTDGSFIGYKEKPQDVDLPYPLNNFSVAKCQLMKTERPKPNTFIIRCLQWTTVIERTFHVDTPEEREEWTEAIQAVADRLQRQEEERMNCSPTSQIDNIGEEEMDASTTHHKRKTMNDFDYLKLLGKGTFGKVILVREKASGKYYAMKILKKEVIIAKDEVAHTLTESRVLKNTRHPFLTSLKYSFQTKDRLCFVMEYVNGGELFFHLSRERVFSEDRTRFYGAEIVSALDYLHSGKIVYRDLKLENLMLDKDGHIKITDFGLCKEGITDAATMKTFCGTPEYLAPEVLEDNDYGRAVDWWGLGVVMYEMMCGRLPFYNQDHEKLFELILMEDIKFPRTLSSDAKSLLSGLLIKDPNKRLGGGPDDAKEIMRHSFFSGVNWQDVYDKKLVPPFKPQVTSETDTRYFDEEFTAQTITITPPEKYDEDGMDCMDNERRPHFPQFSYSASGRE
Procedure: as §1, §2, §3, §4, §5, §6, §7, §8, §9, §10

T1 sequence (P31751 whole entry): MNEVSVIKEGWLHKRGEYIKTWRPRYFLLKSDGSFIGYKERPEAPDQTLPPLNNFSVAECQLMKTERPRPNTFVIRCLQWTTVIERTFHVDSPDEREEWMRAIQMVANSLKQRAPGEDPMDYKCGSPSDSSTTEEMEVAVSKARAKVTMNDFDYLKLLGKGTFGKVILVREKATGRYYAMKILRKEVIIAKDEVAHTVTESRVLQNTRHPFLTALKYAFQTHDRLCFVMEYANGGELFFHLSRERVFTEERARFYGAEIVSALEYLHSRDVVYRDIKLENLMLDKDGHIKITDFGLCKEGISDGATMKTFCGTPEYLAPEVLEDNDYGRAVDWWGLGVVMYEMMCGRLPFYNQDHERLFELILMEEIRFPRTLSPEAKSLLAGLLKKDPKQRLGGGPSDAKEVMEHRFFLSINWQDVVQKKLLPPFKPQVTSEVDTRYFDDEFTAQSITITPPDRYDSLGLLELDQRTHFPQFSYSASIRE

Row | SMILES | IC50 (AKT2) | IC50 (AKT1) | IC50 (AKT3)
1 | Cn1ccc2c(-c3ccccc3)c(-c3ccc(C4(N)CCC4)cc3)oc2c1=O [Example 129, 2-(4-(1-Aminocyclobutyl)phenyl)-6-methyl-3-phenylfuro[2,3-c]pyridin-7(6H)-one] | 0.1 to 1 µM | 0.1 to 1 µM | 1 to 10 µM
2 | COc1nc(NCCN)nc2oc(-c3ccc(C4(N)CCC4)cc3)c(-c3ccccc3)c12 [Example 43, N^1-(6-(4-(1-Aminocyclobutyl)phenyl)-4-methoxy-5-phenylfuro[2,3-d]pyrimidin-2-yl)ethane-1,2-diamine] | 0.1 to 1 µM | 0.1 to 1 µM | 1 to 10 µM
3 | CNC(=O)c1cn(C)c(=O)c2c(-c3ccccc3)c(-c3ccc(C4(N)CCC4)cc3)oc12 [Example 119, 2-(4-(1-Aminocyclobutyl)phenyl)-N,5-dimethyl-4-oxo-3-phenyl-4,5-dihydrofuro[3,2-c]pyridine-7-carboxamide] | 0.1 to 1 µM | 0.1 to 1 µM | > 10 µM
4 | Cc1nc2oc(-c3ccc(C4(N)CCC4)cc3)c(-c3ccccc3)c2c(=O)n1CC(F)(F)F [Example 123, 6-(4-(1-Aminocyclobutyl)phenyl)-2-methyl-5-phenyl-3-(2,2,2-trifluoroethyl)furo[2,3-d]pyrimidin-4(3H)-one] | ≤ 0.1 µM | 0.1 to 1 µM | 1 to 10 µM
5 | COc1nc(N(C)C)nc2oc(-c3ccc(C4(N)CCC4)cc3)c(-c3ccccc3)c12 [Example 26, 6-(4-(1-Aminocyclobutyl)phenyl)-4-methoxy-N,N-dimethyl-5-phenylfuro[2,3-d]pyrimidin-2-amine] | 1 to 10 µM | 0.1 to 1 µM | > 10 µM
6 | C[C@@H](CO)Nc1nc2oc(-c3ccc(C4(N)CCC4)cc3)c(-c3ccccc3)c2c(=O)n1C [Example 98, (S)-6-(4-(1-Aminocyclobutyl)phenyl)-2-(1-hydroxypropan-2-ylamino)-3-methyl-5-phenylfuro[2,3-d]pyrimidin-4(3H)-one] | 0.1 to 1 µM | 0.1 to 1 µM | > 10 µM
7 | NC1(c2ccc(-c3oc4nc(NCCO)[nH]c(=O)c4c3-c3ccccc3)cc2)CCC1 [Example 76, 6-(4-(1-Aminocyclobutyl)phenyl)-2-((2-hydroxyethyl)amino)-5-phenylfuro[2,3-d]pyrimidin-4(3H)-one] | ≤ 0.1 µM | ≤ 0.1 µM | 1 to 10 µM
8 | NC1(c2ccc(-c3oc4cnccc4c3I)cc2)CCC1 [Example 3, 1-(4-(3-Iodofuro[2,3-c]pyridin-2-yl)phenyl)cyclobutanamine] | 1 to 10 µM | 1 to 10 µM | 1 to 10 µM
9 | Cn1cnc2oc(-c3ccc(C4(N)CCC4)cc3)c(-c3ccccc3)c2c1=O [Example 66, 6-(4-(1-Aminocyclobutyl)phenyl)-3-methyl-5-phenylfuro[2,3-d]pyrimidin-4(3H)-one] | 0.1 to 1 µM | 0.1 to 1 µM | > 10 µM
10 | NC1(c2ccc(-c3oc4ncc(-c5cn[nH]c5)nc4c3-c3ccccc3)cc2)CCC1 [Example 135, 1-(4-(7-Phenyl-2-(1H-pyrazol-4-yl)furo[2,3-b]pyrazin-6-yl)phenyl)cyclobutanamine] | 0.1 to 1 µM | 0.1 to 1 µM | 0.1 to 1 µM
11 | COc1nc(N2CC(CN)C2)nc2oc(-c3ccc(C4(N)CCC4)cc3)c(-c3ccccc3)c12 [Example 27, 1-(4-(2-(3-(Aminomethyl)azetidin-1-yl)-4-methoxy-5-phenylfuro[2,3-d]pyrimidin-6-yl)phenyl)cyclobutanamine] | 0.1 to 1 µM | 0.1 to 1 µM | 1 to 10 µM
12 | Cn1c(NCCO)nc2oc(-c3ccc(C4(N)CCC4)cc3)c(-c3ccccc3)c2c1=O [Example 64, 6-(4-(1-Aminocyclobutyl)phenyl)-2-(2-hydroxyethylamino)-3-methyl-5-phenylfuro[2,3-d]pyrimidin-4(3H)-one hydrochloride] | 0.1 to 1 µM | ≤ 0.1 µM | 1 to 10 µM
13 | NC1(c2ccc(-c3oc4nc(NCCO)nc(C(F)(F)F)c4c3-c3ccccc3)cc2)CCC1 [Example 73, 2-((6-(4-(1-Aminocyclobutyl)phenyl)-5-phenyl-4-(trifluoromethyl)furo[2,3-d]pyrimidin-2-yl)amino)ethanol] | 0.1 to 1 µM | 0.1 to 1 µM | > 10 µM
14 | COc1nc(OC)c2c(-c3ccccc3)c(-c3ccc(C4(N)CCC4)cc3)oc2n1 [Example 49, 1-(4-(2,4-Dimethoxy-5-phenylfuro[2,3-d]pyrimidin-6-yl)phenyl)cyclobutanamine] | 0.1 to 1 µM | ≤ 0.1 µM | > 10 µM
15 | COCCNc1nc(OC)c2c(-c3ccccc3)c(-c3ccc(C4(N)CCC4)cc3)oc2n1 [Example 42, 6-(4-(1-Aminocyclobutyl)phenyl)-4-methoxy-N-(2-methoxyethyl)-5-phenylfuro[2,3-d]pyrimidin-2-amine] | 0.1 to 1 µM | 0.1 to 1 µM | > 10 µM
16 | CNc1nc(NCCO)nc2oc(-c3ccc(C4(N)CCC4)cc3)c(-c3ccccc3)c12 [Example 79, 2-(6-(4-(1-Aminocyclobutyl)phenyl)-4-(methylamino)-5-phenylfuro[2,3-d]pyrimidin-2-ylamino)ethanol, HCl] | 1 to 10 µM | 0.1 to 1 µM | > 10 µM
17 | N#Cc1cccc2c(-c3ccccc3)c(-c3ccc(C4(N)CNC4)cc3)oc12 [Example 30, 2-(4-(3-Aminoazetidin-3-yl)phenyl)-3-phenylbenzofuran-7-carbonitrile] | > 10 µM | 0.1 to 1 µM | > 10 µM
18 | COc1ncc(Br)c2oc(-c3ccc(C4(N)CCC4)cc3)c(-c3ccccc3)c12 [Example 80, 1-(4-(7-Bromo-4-methoxy-3-phenylfuro[3,2-c]pyridin-2-yl)phenyl)cyclobutanamine] | 1 to 10 µM | 0.1 to 1 µM | > 10 µM
19 | CCn1c(NC)nc2oc(-c3ccc(C4(N)CCC4)cc3)c(-c3ccccc3)c2c1=O [Example 92, 6-(4-(1-Aminocyclobutyl)phenyl)-3-ethyl-2-(methylamino)-5-phenylfuro[2,3-d]pyrimidin-4(3H)-one] | ≤ 0.1 µM | 0.1 to 1 µM | 1 to 10 µM
20 | NC1(c2ccc(-c3oc4ncc(-c5cnn[nH]5)nc4c3-c3ccccc3)cc2)CCC1 [Example 147, 1-(4-(7-Phenyl-2-(1H-1,2,3-triazol-5-yl)furo[2,3-b]pyrazin-6-yl)phenyl)cyclobutanamine] | 1 to 10 µM | 1 to 10 µM | > 10 µM
21 | COc1nc(NCCN2CCN(C)CC2)nc2oc(-c3ccc(C4(N)CCC4)cc3)c(-c3ccccc3)c12 [Example 34, 6-(4-(1-Aminocyclobutyl)phenyl)-4-methoxy-N-(2-(4-methylpiperazin-1-yl)ethyl)-5-phenylfuro[2,3-d]pyrimidin-2-amine] | 0.1 to 1 µM | ≤ 0.1 µM | 1 to 10 µM
22 | CNc1nc(OCCF)c2c(-c3ccccc3)c(-c3ccc(C4(N)CCC4)cc3)oc2n1 [Example 89, 6-(4-(1-Aminocyclobutyl)phenyl)-4-(2-fluoroethoxy)-N-methyl-5-phenylfuro[2,3-d]pyrimidin-2-amine, HCl] | 0.1 to 1 µM | 0.1 to 1 µM | 1 to 10 µM
23 | NC(=O)c1ccc2oc(-c3ccc(C4(N)CCC4)cc3)c(-c3ccccc3)c2c1 [Example 7, 2-(4-(1-Aminocyclobutyl)phenyl)-3-phenylbenzofuran-5-carboxamide] | 0.1 to 1 µM | 0.1 to 1 µM | > 10 µM
24 | NC1(c2ccc(-c3oc4ncc(N5CCOCC5)cc4c3-c3ccccc3)cc2)CCC1 [Example 28, 1-(4-(5-Morpholino-3-phenylfuro[2,3-b]pyridin-2-yl)phenyl)cyclobutanamine] | 1 to 10 µM | > 10 µM | > 10 µM
25 | C#Cc1cnc2oc(-c3ccc(C4(N)CCC4)cc3)c(-c3ccccc3)c2n1 [Example 146, 1-(4-(2-Ethynyl-7-phenylfuro[2,3-b]pyrazin-6-yl)phenyl)cyclobutanamine] | 1 to 10 µM | 1 to 10 µM | > 10 µM
